Test results taken from patent US5874436A, “Triphenylalkyl antimicrobial agents” (priority 1997, dated 1999).
In brackets after ≈: the same amount, converted by molar mass.

How the values were obtained:
selected microorganisms = assay: MIC antimicrobial assay (NCCLS microdilution broth method); type: cell-based
Description: 2. MIC Anitimicrobial Assay
The in vitro antimicrobial activity of the compounds was determined by the microdilution broth method following the test method from the National Committee for Laboratory Standards (NCCLS). This method is described in the NCCLS Document M7-A2, Vol.10, No.8 "Methods for Dilution Antimicrobial Susceptibility Test for Bacteria that Grow Aerobically--Second Edition."
In this method two-fold serial dilutions of drug in cation supplemented Mueller-Hinton broth are added to wells in microdilution trays. The test organisms are prepared by adjusting the turbidity of actively growing broth cultures so that the final concentration of test organism after it is added to the wells is approximately 5×10^4 CFUs/well).
Following inoculation of the microdilution trays, the trays are incubated at 35° C. for 16-20 hours and then read. […] The amount of growth in the wells containing the test compound is compared with the amount of growth in the growth-control wells (no test compound) used in each tray.

Kinase A and Spo0F = target: T1, Kinase A and Spo0F (Bacillus subtilis, UniProt P16497); assay: Autophosphorylation of Kinase A and transphosphorylation of Spo0F assay (HPK in vitro assay); type: biochemical; conditions: inhibitor concentrations from 1 to 500 μM, [32P]ATP, phosphoimager
T1 construct: made in house; host or cells: E. coli (recombinant, overexpressing)
T1 sequence (P16497 1-606): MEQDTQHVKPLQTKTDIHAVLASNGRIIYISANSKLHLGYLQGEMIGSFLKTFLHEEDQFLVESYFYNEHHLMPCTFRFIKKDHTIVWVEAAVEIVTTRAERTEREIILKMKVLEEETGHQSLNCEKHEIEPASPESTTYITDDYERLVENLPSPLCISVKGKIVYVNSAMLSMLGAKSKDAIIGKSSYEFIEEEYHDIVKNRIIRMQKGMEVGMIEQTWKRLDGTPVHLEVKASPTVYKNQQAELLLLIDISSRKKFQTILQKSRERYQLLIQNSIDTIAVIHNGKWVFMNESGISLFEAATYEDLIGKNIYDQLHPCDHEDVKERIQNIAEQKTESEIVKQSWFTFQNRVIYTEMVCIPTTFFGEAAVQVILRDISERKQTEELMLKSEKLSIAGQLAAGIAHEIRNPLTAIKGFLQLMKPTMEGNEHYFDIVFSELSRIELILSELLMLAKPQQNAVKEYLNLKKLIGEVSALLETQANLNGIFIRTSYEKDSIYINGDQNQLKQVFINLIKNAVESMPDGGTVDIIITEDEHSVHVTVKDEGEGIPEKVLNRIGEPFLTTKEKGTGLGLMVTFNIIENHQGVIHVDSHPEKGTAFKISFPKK
Description: 1. Autophosphorylation of Kinase A and Transphosphorylation of Spo0F Assay
To study the effect of the compounds of the present invention on the signal transduction process in bacteria, the inhibiting effect of the compounds on the sporulation operon proteins Kinase A and Spo0F was examined. Specifically, the inhibition of autophosphorylation of Kinase A and the transphosphorylation of Spo0F was determined in the following assays. The Spo0F response regulator is the primary substrate for phosphorylation by the protein kinase, Kin A, involved in the sporulation process in bacteria. See D. Burbulys, K. A. Trach, J. A. Hoch, Cell, 64, 545-552 (1991). Spo0F and KinA were prepared from recombinant E. coli overexpressing the proteins (J. Cavanagh et al, Amino Acids, 6, 131-140 (1994) and references therein).
The following stock reagents were either prepared and used promptly or stored at the indicated temperature:
8 X Salts : 2M KCl (5 mL), 1M MgCl2 (800 mL), 1M CaCl2 (100 mL), 10 mg/mL phenylmethylsulfonyl fluoride (200 mL), 1 M dithioreitol (50 mL), 0.25M Na2 EDTA (32 mL) and H2 O mL (-20° C.)
5×Loading Dye: 0.5M TRIS-HCl-pH 6.8 (7.5 mL), 10% SDS (2 mL) 0.1% bromophenol blue (0.5 mL), 100% glycerol (3 mL) and 12.5 M 2-mercaptoethanol (0.3 mL)
1-1.3 mg/mL KinA:15 mM TRIS-HCl, pH 8.0, 6 mM KCl; 4 mM 2-mercaptoethanol; 40% glycerol (-20° C.)
1 mg/mL Spo0F: 17.5 mM TRIS-HCl, pH 8.0; 0.7 mM KCl; 0.7 mM MgCl2; 0.7 mM CaCl2; 5mM 2-mercaptoethanol; 30% Glycerol (-20° C.)
5% Stacking Gel: 40% 29:1 acrylamide:bis acrylamide (1.25 mL), 0.5M TRIS-HCl, pH 6.8 (2.5 mL), 10% SDS (0.1 mL), D-H2 O (6.15 mL) 10% ammonium persulfate (100 mL) and TEMED (25 mL) SDS Running Buffer: TRIS-BASE (3.02 g), glycine (14.4 g) SDS (1 g), D-H2 O (to 1L)
The reaction mixture was prepared from 8×Salts (87 μL), 1M TRIS, pH 8 (118 μL), 50% glycerol (63 μL), Spo0F (14.1 μL) and KinA (7.0 μL). Microcentrifuge tubes were charged with the reaction mixture (18.5 μL) and a 1.0 mM solution of the test compound in 5% DMSO (18.5 μL), and incubated for 15 min on ice. 100 mM ATP solution (3.0 μl, containing 625 μCi [^32 P]ATP) was added, and the mixture left for 10 minutes at room temperature. The reaction was quenched with 5×loading dye (10 μL per tube) and the samples were loaded on a prepared 5% Stacking Gel, or stored on dry ice until ready for use. The prepared wells were filled with SDS Running Buffer, samples were loaded into the wells, and 80 volts were applied to the gel until the dye front reached the bottom of the stacking gel. The voltage was then increased to 250 volts until electrophoresis was complete. Radioactive bands in the gel corresponding to phosphorylated KinA and Spo0F were imaged and quantitated with a phosphoimager.
If either enzyme was inhibited (as evidenced by the absence of labelled protein in the developed gel), an IC50 was calculated by running the assay with a range of inhibitor concentrations from 1 to 500 μM. After electrophoresis of the reaction mixtures, percent inhibition was determined by measuring the concentration of radioactive phosphorus with a phosphoimager and calculating the values using a software program (BioRad Molecular Analyst).

| Compound | MIC (selected microorganisms) [µg/mL] | IC50 (Kinase A and Spo0F) [µM] |
| --- | --- | --- |
| NCc1ccc2cc(OCCC(c3ccccc3)(c3ccccc3)c3ccccc3)ccc2c1 [Example 20, 6-(3,3,3-Triphenylpropoxy)-2-naphthylmethylamine] | 4 to 8 (≈ 9.02 to 18 µM) | 75 |
| O=C(O)/C=C/c1ccc(OCCC(c2ccccc2)(c2ccccc2)c2ccccc2)cc1 [Example 22, trans 4-(3,3,3-Triphenylpropoxy)cinnamic acid] | 4 to 64 (≈ 9.21 to 147 µM) | 71 |
| O=C(Cc1ccc(O)cc1)OCCC(c1ccccc1)(c1ccccc1)c1ccccc1 [Example 23, 3,3,3-Triphenylpropyl 2-(4-hydroxyphenyl)acetate] | > 128 | 170 |
| O=C(CCc1ccc(O)cc1)OCCC(c1ccccc1)(c1ccccc1)c1ccccc1 [Example 24, 3,3,3-Triphenylpropyl 3-(4-hydroxyphenyl)propionate] | > 128 | 160 |
| O=C(/C=C/c1ccc(OCCC(c2ccccc2)(c2ccccc2)c2ccccc2)cc1)NCCO [Example 25, trans N-(2-Hydroxyethyl)-4-(3,3,3-triphenylpropoxy)-cinnamide] | > 128 | 150 |
| c1ccc(C(CCOc2ccc(CCC3=NCCCO3)cc2)(c2ccccc2)c2ccccc2)cc1 [Example 26, 4,5-Dihydro-2-{2-[4-(3,3,3-triphenylpropoxy)-phenyl}ethyl}-1,3-oxazine] | 8 to 16 (≈ 16.8 to 33.6 µM) | 43 |
| c1ccc(C(CCOc2ccc(CCc3nnn[nH]3)cc2)(c2ccccc2)c2ccccc2)cc1 [Example 27, 5-{2-[4-(3,3,3-Triphenylpropoxy)phenyl]ethyl}-1H-tetrazole] | 8 to 64 (≈ 17.4 to 139 µM) | 11 |
| C[N+](C)(Cc1ccccc1)Cc1ccc(OCCC(c2ccccc2)(c2ccccc2)c2ccccc2)cc1.[Cl-] [Example 28, N-Benzyl-N,N-dimethyl-[4-(3,3,3-triphenylpropoxy)-phenyl]methyl ammonium chloride] | 2 | 13 |
| [Cl-].c1ccc(C(CCOc2ccc(C[n+]3ccccc3)cc2)(c2ccccc2)c2ccccc2)cc1 [Example 29, 1-{[4-(3,3,3-triphenylpropoxy)-phenyl]methyl}pyridinium chloride] | 2 to 4 | 6 |
| Cc1n(C)cc[n+]1Cc1ccc(OCCC(c2ccccc2)(c2ccccc2)c2ccccc2)cc1.[Cl-] [Example 30, 1,2-Dimethyl-3-{[4-(3,3,3-triphenylpropoxy)-phenyl]methyl}imidazolium chloride] | 2 to 8 | 28 |
| O=C(O)C(=Cc1ccc(OCCC(c2ccccc2)(c2ccccc2)c2ccccc2)cc1)C(=O)O [Example 31, [4-(3,3,3-Triphenylpropoxy)benzylidene]malonic acid] | > 128 | 54 |
| c1ccc(C(CCOc2ccc(Cc3nnn[nH]3)cc2)(c2ccccc2)c2ccccc2)cc1 [Example 32, 5-[4-(3,3,3-Triphenylpropoxy)phenyl]methyl-1H-tetrazole] | 8 to 64 (≈ 17.9 to 143 µM) | 19 |
| C[N+](C)(C)Cc1ccc(OCCC(c2ccccc2)(c2ccccc2)c2ccccc2)cc1.[Cl-] [Example 33, N,N,N-Trimethyl-[4-(3,3,3-triphenylpropoxy)phenyl]methylammonium chloride] | 4 to 8 | 29 |
| O=C(O)Cc1cccc(OCCC(c2ccccc2)(c2ccccc2)c2ccccc2)c1 [Example 34, 2-[3-(3,3,3-Triphenylpropoxy)phenyl]acetic acid] | 32 (≈ 75.7 µM) | 38 |
| O=C(O)CCc1cccc(OCCC(c2ccccc2)(c2ccccc2)c2ccccc2)c1 [Example 35, 3-[3-(3,3,3-Triphenylpropoxy)phenyl]propionic acid] | 4 to 128 (≈ 9.16 to 293 µM) | 42 |
| O=C(O)Cc1ccccc1OCCC(c1ccccc1)(c1ccccc1)c1ccccc1 [Example 36, 2-(3,3,3-Triphenylpropoxy)phenylacetic acid] | 16 to 32 (≈ 37.9 to 75.7 µM) | 45 |
